Results on 13 molecules are retold here after US8871756B2 (Hoffmann-La Roche Inc., priority 2011, dated 2014).

This test concerns RSV Long strain. The experiment in a line: Viral cytopathic effect (CPE) assay, anti-RSV activity. Particulars: human respiratory syncytial virus, 144 h, RSV Long strain (ATCC); cell viability after 6 days, Cell Counting kit-8. The class given is cell-based, Respiratory Syncytial Virus. In short, it runs like this:
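EC50 was derived from CCK-8 viability at 450/630 nm measured 6 days post-infection. Infection used enough RSV Long strain for approximately 80–90% cytopathic effect, in the presence of half-log serially diluted compound. Cells were plated the day before at 6×10^3 per well in DMEM/10% FBS.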
For the molecule `N[C@@H]1CN(c2cc(N3CCS(=O)(=O)c4ccccc4C3)nc3ccncc23)C[C@H]1O` (relative stereo) [Example 24, trans-4-Amino-1-[2-(1,1-dioxido-2,3-dihydro-1,4-benzothiazepin-4(5H)-yl)-1,6-naphthyridin-4-yl]pyrrolidin-3-ol], it took 0.016 µM to reach a half-maximal effect (EC50).

As for `C=Cc1ccc2nc(N3CCS(=O)(=O)c4ccccc4C3)cc(NCCCN)c2c1` [Example 53, N-[2-(1,1-Dioxido-2,3-dihydro-1,4-benzothiazepin-4(5 H)-yl)-6-ethenylquinolin-4-yl]propane-1,3-diamine], it took 0.094 µM to reach a half-maximal effect (EC50). As to `NCCCNc1cc(N2CCS(=O)(=O)c3ccccc3C2)nc2ccc(C(F)F)cc12` [Example 9-29, N-[6-(Difluoromethyl)-2-(1,1-dioxido-2,3-dihydro-1,4-benzothiazepin-4(5H)-yl)quinolin-4-yl]propane-1,3-diamine], the EC50 worked out at 0.024 µM. The result for `Cc1ccc2nc(N3CCS(=O)(=O)c4ccccc4C3)cc(N3C[C@H](O)[C@@H](O)C3)c2c1` [Example 3-34, (3S,4S)-1-[2-(1,1-Dioxido-2,3-dihydro-1,4-benzothiazepin-4(5H)-yl)-6-methylquinolin-4-yl]pyrrolidine-3,4-diol] reads 0.085 µM; that for `Cc1ccc2nc(N3CCC(F)(F)c4ccccc4C3)cc(N3CCNCC3)c2c1` [Example 111-1, 5,5-Difluoro-2-[6-methyl-4-(piperazin-1-yl)quinolin-2-yl]-2,3,4,5-tetrahydro-1H-2-benzazepine], 2.01 µM; that for `O=S1(=O)CCN(c2cc(N[C@@H]3CNC[C@H]3O)c3ccccc3n2)Cc2ccccc21` (relative stereo) [Example 28-2, trans-4-{[2-(1,1-Dioxido-2,3-dihydro-1,4-benzothiazepin-4(5H)-yl)quinolin-4-yl]amino}pyrrolidin-3-ol], 0.007 µM. The result for `COc1ccc2c(c1)S(=O)(=O)CCN(c1cc(NCC3(CN)COC3)c3cc(Cl)ccc3n1)C2` [Example 3-14, N-{[3-(Aminomethyl)oxetan-3-yl]methyl}-6-chloro-2-(8-methoxy-1,1-dioxido-2,3-dihydro-1,4-benzothiazepin-4(5H)-yl)quinolin-4-amine] reads 0.017 µM; that for `Cc1ccc2nc(N3CCS(=O)(=O)c4ccccc4C3)cc(NCCNc3ccccn3)c2c1` [Example 46, N-[2-(1,1-Dioxido-2,3-dihydro-1,4-benzothiazepin-4(5H)-yl)-6-methylquinolin-4-yl]-N′-(pyridin-2-yl)ethane-1,2-diamine], 0.682 µM. Then `CCC(N)C(=O)Nc1cc(N2CCS(=O)(=O)c3ccccc3C2)nc2ccc(C)cc12` (stereo not shown) [Example 40-4, 2-Amino-N-[2-(1,1-dioxido-2,3-dihydro-1,4-benzothiazepin-4(5H)-yl)-6-methylquinolin-4-yl]butanamide], with 2.65 µM. `NCC(=O)Nc1cc(N2CCCc3ccccc3C2)nc2ccccc12` [Example 127, N-[2-(1,3,4,5-Tetrahydro-2H-2-benzazepin-2-yl)quinolin-4-yl]glycinamide] gave an EC50 of 6.25 µM. `Cc1ccc2nc(N3CCS(=O)(=O)c4ccccc4C3)nc(NCC(O)CO)c2c1` (stereo not shown) [Example 87-1, 3-{[2-(1,1-Dioxido-2,3-dihydro-1,4-benzothiazepin-4(5H)-yl)-6-methylquinazolin-4-yl]amino}propane-1,2-diol] showed an EC50 of 0.096 µM. As for `Cc1ccc2nc(N3CCS(=O)(=O)c4ccccc4C3)cc(NC(=O)C3CCN3)c2c1` (stereo not shown) [Example 49, N-[2-(1,1-Dioxido-2,3-dihydro-1,4-benzothiazepin-4(5H)-yl)-6-methylquinolin-4-yl]azetidine-2-carboxamide], it took 0.721 µM to reach a half-maximal effect (EC50). For `Cc1ccc2nc(N3CCS(=O)(=O)c4ccccc4C3)cc(NCC(F)(F)CN)c2c1` [Example 3-19, N-[2-(1,1-Dioxido-2,3-dihydro-1,4-benzothiazepin-4(5H)-yl)-6-methylquinolin-4-yl]-2,2-difluoropropane-1,3-diamine], the EC50 is 0.009 µM.
